{"source": "paper PMC11546610", "about": "“Molecular Modeling and In Vitro Functional Analysis of the RGS12 PDZ Domain Variant Associated with High-Penetrance Familial Bipolar Disorder” (International Journal of Molecular Sciences, 2024)", "key": {"[1]": {"molecular_target": "T1, wildtype RGS12 PDZ domain GST-fusion protein (Homo sapiens, UniProt O14924)", "T1 construct": "human RGS12 PDZ domain (aa 18–101 of UniProt O14924); purchased GenScript; host or cells: E. coli", "T1 sequence (O14924 18-101)": "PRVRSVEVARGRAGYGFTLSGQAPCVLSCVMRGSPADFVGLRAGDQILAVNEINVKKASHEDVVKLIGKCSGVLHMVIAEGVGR", "assay": "SPR single-cycle kinetics (Alto), wildtype PDZ domain", "assay_type": "binding", "conditions": "single trace in figure, 111 nM–9 μM analyte, PBS pH 7.3, 1:1 Langmuir with mass transport limitation, read-out: apparent on-rate (ka)", "experimental": "(§1) Wildtype and R59Q-variant versions of the human RGS12 PDZ domain (aa 18–101 of UniProt O14924) were each cloned in frame with an N-terminal glutathione-S-transferase (GST) expression tag, expressed by E. coli fermentation, and purified by GST-affinity column and size-exclusion column chromatographies by GenScript. These recombinant GST-fusion proteins were stored at −80 °C in a storage buffer (150 mM NaCl, 10 mM Tris-HCl pH 7.6, 1 mM EDTA, 5 mM DTT, and 10% glycerol) prior to thawing and supplementation with 0.1% (final) Tween 20 for use in the SPR experiments.\nBiotinylated peptides were separately immobilized onto streptavidin-coated gold nanosensor particles (Nicoya) in lane pairs. […] All on-board dilutions and experimental passages of analytes over immobilized peptides were performed with a running buffer consisting of phosphate-buffered saline (137 mM NaCl, 2.7 mM KCl, 4.3 mM disodium phosphate, 1.4 mM monopotassium phosphate; and pH 7.3, from Teknova) supplemented with 0.1% Tween 20 (Nicoya), […] (w/v) bovine serum albumin (BSA; Nicoya), and 3% glycerol (the latter to reduce bulk-shift readings when transitioning from running buffer to protein analyte injections). […] Observed maximal response units (Rmax) and calculated KD values for each single-stack injection were plotted using GraphPad Prism 10."}, "[2]": {"molecular_target": "T2, R59Q-variant RGS12 PDZ domain GST-fusion protein (Homo sapiens, UniProt O14924, R59Q)", "T2 construct": "human RGS12 PDZ domain (aa 18–101 of UniProt O14924); purchased GenScript; host or cells: E. coli", "T2 sequence (O14924 18-101 R59Q)": "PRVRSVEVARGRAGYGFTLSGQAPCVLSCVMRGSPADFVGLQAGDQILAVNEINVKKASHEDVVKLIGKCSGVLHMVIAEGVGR", "assay": "SPR single-cycle kinetics (Alto), R59Q-variant PDZ domain", "assay_type": "binding", "conditions": "for KD of R59Q variant relative to wildtype (fold less than the wildtype) / maximal binding signal (Rmax), R59Q in comparison to wildtype: R59Q vs wildtype, peptide biosensors, N = 2-4; for kon: R59Q, single trace in figure, 111 nM–9 μM analyte, PBS pH 7.3, 1:1 Langmuir with mass transport limitation, read-out: apparent on-rate (ka)", "experimental": "as §1\nBiotinylated peptides were separately immobilized onto streptavidin-coated gold nanosensor particles (Nicoya) in lane pairs. The reference sensor of the lane held either immobilized mNotch1 or rβ2AR peptide as an established negative control surface, and the test sensor held one of the candidate PDZ domain-interacting peptides. All on-board dilutions and experimental passages of analytes over immobilized peptides were performed with a running buffer consisting of phosphate-buffered saline (137 mM NaCl, 2.7 mM KCl, 4.3 mM disodium phosphate, 1.4 mM monopotassium phosphate; and pH 7.3, from Teknova) supplemented with 0.1% Tween 20 (Nicoya), […] (w/v) bovine serum albumin (BSA; Nicoya), and 3% glycerol (the latter to reduce bulk-shift readings when transitioning from running buffer to protein analyte injections). […] Each sensor was regenerated between each single-stack passage by the injection of a surface regeneration buffer (10 mM NaOH). Non-specific binding to the paired, negative control peptide-bound streptavidin surface was subtracted from each single-stack curve and then binding parameters of the on-rate (ka), off-rate (kd), and dissociation constant (KD) were calculated using the 1:1 Langmuir kinetics model with mass transport limitation (Alto software version 2.3.1; Nicoya). Observed maximal response units (Rmax) and calculated KD values for each single-stack injection were plotted using GraphPad Prism 10."}, "[3]": {"test_system": "RGS12 PDZ domain protein fusions", "conditions": "yeast two-hybrid, far-western blotting, SPR; ref [19]; cited from earlier work", "excerpt": "In our initial report identifying the PDZ domain within RGS12, we characterized its binding selectivity as being directed toward C-terminal (A/S)-T-X-(L/V) peptide motifs. […] Our subsequent report, characterizing RGS12 as a neuronal Ras/MAPK ..."}, "[4]": {"molecular_target": "T3, SAPAP3 C-terminal peptide, biotin-Ahx-IYIPEAQTRL-carboxylic acid (human, SMILES …)", "T3 construct": "C-terminus of SAPAP3; the last ten residues of the human 20-mer aa 960-979; also called SAPAP3 C-tail peptide AQTRL-COOH; source: synthetic peptide (GenScript)", "T3 peptide": "{Biotin-Ahx}-IYIPEAQTRL-OH", "assay": "SPR; Alto 8 × 2 digital microfluidics SPR (Nicoya); biotinylated peptides immobilised on streptavidin-coated gold nanosensors; GST-RGS12 PDZ fusion protein as analyte, single-cycle kinetics, 111 nM-9 μM; PBS pH 7.3 with 0.1% Tween 20, BSA, 3% glycerol; mNotch1 or rβ2AR reference sensor subtracted; 1:1 Langmuir model with mass transport limitation; apparent rates, estimated KD", "conditions": "both partners purified"}, "[5]": {"molecular_target": "T4, CXCR2 C-terminal peptide, biotin-Ahx-VGSSSGHTSTTL-carboxylic acid (SMILES …)", "T4 construct": "C-terminus of CXCR2; also called CXCR2 C-tail peptide TSTTL-COOH; CXCR2 TSTTL-COOH biosensor; source: synthetic peptide (GenScript)", "T4 peptide": "{Biotin-Ahx}-VGSSSGHTSTTL-OH", "assay": "SPR; Alto 8 × 2 digital microfluidics SPR (Nicoya); biotinylated peptides immobilised on streptavidin-coated gold nanosensors; GST-RGS12 PDZ fusion protein as analyte, single-cycle kinetics, 111 nM-9 μM; PBS pH 7.3 with 0.1% Tween 20, BSA, 3% glycerol; mNotch1 or rβ2AR reference sensor subtracted; 1:1 Langmuir model with mass transport limitation; apparent rates, estimated KD", "conditions": "both partners purified"}, "[6]": {"molecular_target": "T5, MEK2 C-terminal peptide, biotin-Ahx-RTLRLKQPSTPTRTAV-carboxylic acid (rat, SMILES …)", "T5 construct": "C-terminus of MEK2; also called MEK2 C-tail; TRTAV-COOH of MEK2; source: synthetic peptide (GenScript)", "T5 peptide": "{Biotin-Ahx}-RTLRLKQPSTPTRTAV-OH", "assay": "SPR; Alto 8 × 2 digital microfluidics SPR (Nicoya); biotinylated peptides immobilised on streptavidin-coated gold nanosensors; GST-RGS12 PDZ fusion protein as analyte, single-cycle kinetics, 111 nM-9 μM; PBS pH 7.3 with 0.1% Tween 20, BSA, 3% glycerol; mNotch1 or rβ2AR reference sensor subtracted; 1:1 Langmuir model with mass transport limitation; apparent rates, estimated KD", "conditions": "both partners purified"}}, "note": "Residues, ends and D or L forms follow the SMILES beside them. *: point of attachment. Biotin = O=C1N[C@H]2[C@H](CS[C@H]2CCCCC(=O)*)N1; Ahx = NCCCCCC(=O)O", "data": [{"molecule": "CC(C)C[C@H](NC(=O)[C@@H](NC(=O)[C@@H](NC(=O)[C@H](CO)NC(=O)[C@@H](NC(=O)[C@H](Cc1c[nH]cn1)NC(=O)CNC(=O)[C@H](CO)NC(=O)[C@H](CO)NC(=O)[C@H](CO)NC(=O)CNC(=O)[C@@H](NC(=O)CCCCCNC(=O)CCCC[C@@H]1SC[C@@H]2NC(=O)N[C@@H]21)C(C)C)[C@@H](C)O)[C@@H](C)O)[C@@H](C)O)C(=O)O", "note": "({Biotin-Ahx}-VGSSSGHTSTTL-OH)", "values": [{"measurement": "kon", "setting": "[1]", "result": 1210, "unit": "M⁻¹ s⁻¹"}, {"measurement": "KD of R59Q variant relative to wildtype (fold less than the wildtype)", "setting": "[2]", "result": "at least 2 fold"}, {"measurement": "maximal binding signal (Rmax), R59Q in comparison to wildtype", "setting": "[2]", "result": "less maximal binding signal (Rmax)"}, {"measurement": "kon", "setting": "[2]", "result": 1500, "unit": "M⁻¹ s⁻¹"}]}, {"molecule": "CC[C@H](C)[C@H](NC(=O)CCCCCNC(=O)CCCC[C@@H]1SC[C@@H]2NC(=O)N[C@@H]21)C(=O)N[C@@H](Cc1ccc(O)cc1)C(=O)N[C@H](C(=O)N1CCC[C@H]1C(=O)N[C@@H](CCC(=O)O)C(=O)N[C@@H](C)C(=O)N[C@@H](CCC(N)=O)C(=O)N[C@H](C(=O)N[C@@H](CCCNC(=N)N)C(=O)N[C@@H](CC(C)C)C(=O)O)[C@@H](C)O)[C@@H](C)CC", "note": "({Biotin-Ahx}-IYIPEAQTRL-OH)", "values": [{"measurement": "kon", "setting": "[1]", "result": 1490, "unit": "M⁻¹ s⁻¹"}, {"measurement": "KD of R59Q variant relative to wildtype (fold less than the wildtype)", "setting": "[2]", "result": "at least 2 fold"}, {"measurement": "maximal binding signal (Rmax), R59Q in comparison to wildtype", "setting": "[2]", "result": "less maximal binding signal (Rmax)"}, {"measurement": "kon", "setting": "[2]", "result": 15400, "unit": "M⁻¹ s⁻¹"}]}, {"molecule": "TSTTL-COOH [CXCR2 C-tail pentamer used in docking and MD]", "values": [{"measurement": "binding to RGS12 PDZ domain fusions (in words)", "setting": "[3]", "result": "specific binding was observed"}]}, {"molecule": "R59Q-variant human RGS12 PDZ domain GST-fusion protein (domain or fragment, UniProt O14924 18-101, looked up, human RGS12 PDZ domain, aa 18-101 of UniProt O14924, with the bipolar disorder-associated missense variation R59Q; R59Q is a variant found in families with bipolar disorder (Forstner et al.); also called R59Q-variant PDZ domain fusion protein; not shown: GST, N-terminal, kept) PRVRSVEVARGRAGYGFTLSGQAPCVLSCVMRGSPADFVGLQAGDQILAVNEINVKKASHEDVVKLIGKCSGVLHMVIAEGVGR", "values": [{"measurement": "fold change of KD against the wild type", "setting": "[4]", "result": "≥ 2", "unit": "fold"}, {"measurement": "fold change of KD against the wild type", "setting": "[5]", "result": "≥ 2", "unit": "fold"}, {"measurement": "fold change of KD against the wild type", "setting": "[6]", "result": "≥ 2", "unit": "fold"}]}]}
